Where “and” joins values, the source holds several entries; their conditions need not be identical. Equal values may be shown once. Read-outs that look alike come from different tables or passages of the source. Positions of bridges follow the written chain, without caps; N, C: chain ends. Non-standard residues stand in square brackets, D forms with d. Residues, ends and D or L forms follow the SMILES beside them. dPhe(4-CF3) = N[C@H](Cc1ccc(C(F)(F)F)cc1)C(=O)O; dTrp(6-F) = N[C@H](Cc1c[nH]c2cc(F)ccc12)C(=O)O; Lys(N3) = [N-]=[N+]=NCCCC[C@H](N)C(=O)O; R8 = C=CCCCCCC[C@@](C)(N)C(=O)O; Cba = N[C@@H](CC1CCC1)C(=O)O; R5 = C=CCCC[C@@](C)(N)C(=O)O; S5 = C=CCCC[C@](C)(N)C(=O)O; βAla = NCCC(=O)O
Assays:
HCT116 cells = test: Lactate dehydrogenase (LDH) release assay; assay type: cell-based
Procedure, shortened: (§1)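 HCT116 cells stably carrying a p53-responsive β-lactamase reporter, seeded at 8000 cells/well, exposed to compound with 0.5% final DMSO. LDH release read with the CytoTox-ONE membrane integrity kit. Values are geometric means of at least three biological replicates.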

[1] = Lactate dehydrogenase (LDH) release assay; assay type: cell-based
Procedure, shortened: as §1

human Mdm2 1–125 = molecular target: T1, human Mdm2 1–125 (Homo sapiens, UniProt Q00987); test: Mdm2 binding by competitive fluorescence anisotropy assay (FP binding)
T1 construct: GST (N); His6 (internal); TEV cleavage site (ENLYFQG) (internal); made in house; host or cells: BL21 (DE3) Rosetta T1R Escherichia coli
T1 sequence (Q00987 with tags, fused parts or gaps): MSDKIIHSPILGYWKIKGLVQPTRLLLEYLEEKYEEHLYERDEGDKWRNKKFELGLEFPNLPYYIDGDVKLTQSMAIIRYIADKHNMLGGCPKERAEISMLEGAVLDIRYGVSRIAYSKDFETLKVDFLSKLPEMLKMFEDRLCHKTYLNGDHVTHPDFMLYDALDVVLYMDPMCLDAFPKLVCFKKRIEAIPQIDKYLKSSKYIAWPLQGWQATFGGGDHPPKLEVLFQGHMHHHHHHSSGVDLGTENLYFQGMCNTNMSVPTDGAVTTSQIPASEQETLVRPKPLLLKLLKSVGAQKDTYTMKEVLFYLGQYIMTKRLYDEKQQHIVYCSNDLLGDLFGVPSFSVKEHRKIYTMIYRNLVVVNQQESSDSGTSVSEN

[2] = tested on: p53 responsive β-lactamase reporter in HCT116 cells; test: cells; assay type: cell-based
Procedure, shortened: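 Read-out used the ToxBLAzer Dual Screen for β-lactamase driven by a stably integrated p53-responsive reporter. Assay: 8000 HCT116 cells per well at 0.5% final DMSO. Reported numbers are geometric means over a minimum of three biological replicates.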

Ca Ski cell line = tested on: Ca Ski cell line
Procedure, shortened: (§2)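 Compound dilution series (10 points, 3-fold, 10 mM top stock in DMSO) tested on overnight-plated Ca Ski cells in RPMI1640/10% FBS and on blasticidin-selected p53RE-bla HCT-116 cells in McCoy's 5A; read-out was CellTiter-Glo 2.0 luminescence after room-temperature equilibration.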

[3] = tested on: CellSensor p53RE-bla HCT-116 Cell Line
Procedure, shortened: as §2

[4] = 0% FBS 4Hr, read-out: LDH: Cytotoxicity assay EC50
[5] = 10% FBS 16Hr, read-out: LDH: Cytotoxicity assay EC50
[6] = FP binding assay KD, Tween-20 <CMC
[7] = 0% FBS 4Hr, read-out: p53 reporter assay EC50
[8] = 10% FBS 16Hr, read-out: p53 reporter assay EC50
[9] = read-out: Cell Proliferation assay EC50, Ca-Ski, p53 Mut, Ca-Ski
[10] = read-out: Cell Proliferation assay EC50, HCT116, p53 WT, HCT116
[11] = 0% FBS 16Hr, read-out: p53 reporter assay EC50
[12] = 10% FBS 4Hr, read-out: p53 reporter assay EC50
[13] = 4 hours, 0% serum, read-out: LDH Cytotoxicity assay EC50
[14] = read-out: Cell EC50 (4 hr, 0% FBS), p53 reporter assay, 4 hr, 0% FBS
[15] = read-out: Cell EC50 (16 hr, 10% FBS), p53 reporter assay, 16 hr, 10% FBS
[16] = read-out: Proliferation EC50 Ca Ski (Off-target), Ca Ski
[17] = read-out: Proliferation EC50 HCT116 (On-target), HCT116

| SMILES | LDH: Cytotoxicity assay % Effect (HCT116 cells; 0% FBS 4Hr) | LDH: Cytotoxicity assay % Effect (HCT116 cells; 10% FBS 16Hr) | EC50 [1, 4] | EC50 [1, 5] | Kd (human Mdm2 1–125; [6]) | p53 reporter assay % Effect ([2]; 0% FBS 4Hr) | EC50 [2, 7] | p53 reporter assay % Effect ([2]; 10% FBS 16Hr) | EC50 [2, 8] | EC50 (Ca Ski cell line; [9]) | EC50 [3, 10] | EC50 ([1]; LDH: Cytotoxicity assay EC50) | EC50 [2, 14] | EC50 [2, 15] | also measured |
| --- | --- | --- | --- | --- | --- | --- | --- | --- | --- | --- | --- | --- | --- | --- | --- |
| CC(C)C[C@@H](NC(=O)[C@@]1(C)CCCC=CCCC[C@@](C)(NC(=O)[C@@H](C)NC(=O)[C@@H](Cc2ccc(O)cc2)NC(=O)[C@@H](Cc2c[nH]c3cc(F)ccc23)NC(=O)[C@@H](C)NC(=O)[C@H](N)[C@H](C)O)C(=O)N[C@H](Cc2ccc(C(F)(F)F)cc2)C(=O)N[C@H](CCC(=O)O)C(=O)N[C@H](CCC(N)=O)C(=O)N1)C(=O)N[C@H](CO)C(N)=O [MP-795] (H-[dT][dA][dTrp(6-F)][dY][dA][R5][dPhe(4-CF3)][dE][dQ][R5][dL][dS]-NH2; staple 6-10) | 13.17% | 16.65% | > 50.7 µM | > 50.7 µM | 0.152 µM | 142.6% | 5.18 µM | 21.51% | > 50.4 µM | 22.5 µM | 26.4 µM |  |  |  |  |
| CC(=O)N[C@@H](CC(C)C)C(=O)N[C@H](C(=O)N[C@@H](Cc1ccccc1)C(=O)N[C@]1(C)CCCCCCC=CCCC[C@@](C)(C(=O)N[C@@H](CO)C(=O)N[C@@H](C)C(=O)N[C@@H](C)C(N)=O)NC(=O)[C@@H](CC2CCC2)NC(=O)[C@H](CC(C)C)NC(=O)[C@H](CCC(N)=O)NC(=O)[C@H](Cc2c[nH]c3ccccc23)NC(=O)[C@H](Cc2ccc(O)cc2)NC(=O)[C@H](CCC(=O)O)NC1=O)[C@@H](C)O [MP-009] |  |  |  |  |  |  | 8.27 µM |  |  |  |  | > 50.7 µM |  |  | Kd (human Mdm2 1–125; read-out: FP binding assay KD): 2.22 µM; EC50 [2, 11]: 29.5 µM; EC50 [2, 12]: > 50.6 µM |
| CC(=O)N[C@@H](C(=O)N[C@H](C)C(=O)N[C@H](Cc1c[nH]c2cc(F)ccc12)C(=O)N[C@H](Cc1ccc(O)cc1)C(=O)N[C@H](C)C(=O)N[C@]1(C)CCCC=CCCC[C@](C)(C(=O)N[C@H](CC(C)C)C(=O)N[C@H](CO)C(=O)N[C@H](C)C(=O)N[C@H](C)C(=O)N[C@H](C)C(=O)N[C@H](C)C(=O)N[C@H](C)C(=O)N[C@H](C)C(=O)N[C@H](C)C(=O)N[C@H](C)C(=O)N[C@H](C)C(N)=O)NC(=O)[C@@H](CCC(N)=O)NC(=O)[C@@H](CCC(=O)O)NC(=O)[C@@H](Cc2ccc(C(F)(F)F)cc2)NC1=O)[C@H](C)O [MP-1230] (Ac-[dT][dA][dTrp(6-F)][dY][dA][R5][dPhe(4-CF3)][dE][dQ][R5][dL][dS][dA][dA][dA][dA][dA][dA][dA][dA][dA]-NH2; staple 6-10) | 4.322% | -2.735% | > 50.7 µM | > 50.7 µM | 0.0217 µM | 14.85% | > 50.4 µM | 35.9% | > 50.4 µM | > 49.8 µM | 21.4 µM |  |  |  |  |
| CC(=O)N[C@@H](C(=O)N[C@H](C)C(=O)N[C@H](Cc1c[nH]c2cc(F)ccc12)C(=O)N[C@H](Cc1ccc(O)cc1)C(=O)N[C@H](C)C(=O)N[C@]1(C)CCCC=CCCC[C@](C)(C(=O)N[C@H](CC(C)C)C(=O)N[C@H](CO)C(=O)N[C@H](C)C(=O)N[C@H](C)C(=O)N[C@H](C)C(=O)N[C@H](C)C(=O)N[C@H](C)C(=O)N[C@H](C)C(N)=O)NC(=O)[C@@H](CCC(N)=O)NC(=O)[C@@H](CCC(=O)O)NC(=O)[C@@H](Cc2ccc(C(F)(F)F)cc2)NC1=O)[C@H](C)O [MP-042] (Ac-[dT][dA][dTrp(6-F)][dY][dA][R5][dPhe(4-CF3)][dE][dQ][R5][dL][dS][dA][dA][dA][dA][dA][dA]-NH2; staple 6-10) | 8.154% | 15.87% | > 50.7 µM | > 50.7 µM | 0.00323 µM | 91.28% | 0.612 µM | 98.03% | 0.284 µM | 32 µM | 4.24 µM |  | 0.6 µM | 0.28 µM and 0.3 µM | EC50 [1, 13]: > 50 µM; Kd (human Mdm2 1–125; Binding KD): 0.03 µM; overall improvement of cellular activity compared to initial parent peptide (MP-769) ([2]; 10% serum, 16-hour): > 178 fold; EC50 (Ca Ski cell line; [16]): 31 µM; EC50 [3, 17]: 1.5 µM |
| CC(=O)N[C@@H](C(=O)N[C@H](C)C(=O)N[C@H](Cc1c[nH]c2cc(F)ccc12)C(=O)N[C@H](Cc1ccc(O)cc1)C(=O)N[C@H](C)C(=O)N[C@]1(C)CCCC=CCCC[C@](C)(C(=O)N[C@H](CC(C)C)C(=O)N[C@H](CO)C(=O)N[C@H](C)C(=O)N[C@H](C)C(=O)N[C@H](C)C(N)=O)NC(=O)[C@@H](CCC(N)=O)NC(=O)[C@@H](CCC(=O)O)NC(=O)[C@@H](Cc2ccc(C(F)(F)F)cc2)NC1=O)[C@H](C)O [MP-0230] (Ac-[dT][dA][dTrp(6-F)][dY][dA][R5][dPhe(4-CF3)][dE][dQ][R5][dL][dS][dA][dA][dA]-NH2; staple 6-10) |  |  |  |  |  | 96.81% | 1.44 µM | 84.65% | 4.34 µM |  |  | > 50.7 µM |  |  | Kd (human Mdm2 1–125; Tween-20 <CMC, read-out: FP binding assay KD): 0.00311 µM |
| CC(=O)N[C@@H](CCCCN=[N+]=[N-])C(=O)NCCC(=O)N[C@@H](CC(C)C)C(=O)N[C@H](C(=O)N[C@@H](Cc1ccccc1)C(=O)N[C@]1(C)CCCCCCC=CCCC[C@@](C)(C(=O)N2CCC[C@@H]2C(=O)N2CCC[C@@H]2C(=O)N2CCC[C@@H]2C(=O)N2CCC[C@@H]2C(=O)N2CCC[C@@H]2C(=O)N2CCC[C@@H]2C(N)=O)NC(=O)[C@H](CC2CCC2)NC(=O)[C@H](CCC(N)=O)NC(=O)[C@H](C)NC(=O)[C@H](Cc2c[nH]c3ccccc23)NC(=O)[C@H](Cc2ccc(O)cc2)NC(=O)[C@H](CCC(=O)O)NC1=O)[C@@H](C)O [MP-896] |  |  |  |  | 0.0109 µM |  |  |  |  | > 49.8 µM |  |  | > 50 µM | > 50 µM | LDH: Cytotoxicity assay: % Effect (HCT116 cells; 0% FBS 4Hr): -5.717%; LDH: Cytotoxicity assay: % Effect (HCT116 cells; 10% FBS 16Hr): 1.172%; EC50 ([1]; 0% FBS 4Hr, read-out: LDH: Cytotoxicity assay: EC50): > 50.7 µM; EC50 ([1]; 10% FBS 16Hr, read-out: LDH: Cytotoxicity assay: EC50): > 50.7 µM; Kd (human Mdm2 1–125; Binding KD): 0.011 µM; p53 reporter assay: % Effect ([2]; 0% FBS 4Hr): 28.91%; EC50 ([2]; 0% FBS 4Hr, read-out: p53 reporter assay: EC50): > 50.4 µM; p53 reporter assay: % Effect ([2]; 10% FBS 16Hr): 32.76%; EC50 ([2]; 10% FBS 16Hr, read-out: p53 reporter assay: EC50): > 50.4 µM |
| CC(=O)N[C@@H](C(=O)N[C@H](C)C(=O)N[C@H](Cc1c[nH]c2cc(F)ccc12)C(=O)N[C@H](Cc1ccc(O)cc1)C(=O)N[C@H](C)C(=O)N[C@]1(C)CCCC=CCCC[C@](C)(C(=O)N[C@H](CC(C)C)C(=O)N[C@H](CO)C(N)=O)NC(=O)[C@@H](CCC(N)=O)NC(=O)[C@@H](CCC(=O)O)NC(=O)[C@@H](Cc2ccc(C(F)(F)F)cc2)NC1=O)[C@H](C)O [MP-797] (Ac-[dT][dA][dTrp(6-F)][dY][dA][R5][dPhe(4-CF3)][dE][dQ][R5][dL][dS]-NH2; staple 6-10) | 33.6% | 29.91% | > 50.7 µM | > 50.7 µM | 0.258 µM | 74.63% | 3.61 µM | 8.593% | > 50.4 µM | 30.4 µM | 9.09 µM |  | 3.6 µM | > 50 µM | EC50 [1, 13]: > 50 µM; improvement of cellular activity vs MP-769 ([2]; 0% serum, 4-hour assay): 3 fold; EC50 (Ca Ski cell line; [16]): 30.4 µM; EC50 [3, 17]: 9.1 µM |
| CC(=O)N[C@@H](CCCCN=[N+]=[N-])C(=O)NCCC(=O)N[C@@H](CC(C)C)C(=O)N[C@H](C(=O)N[C@@H](Cc1ccccc1)C(=O)N[C@]1(C)CCCCCCC=CCCC[C@@](C)(C(=O)N[C@@H](CO)C(=O)N[C@@H](C)C(=O)N[C@@H](C)C(N)=O)NC(=O)[C@H](CC2CCC2)NC(=O)[C@H](CCC(N)=O)NC(=O)[C@H](C)NC(=O)[C@H](Cc2c[nH]c3ccccc23)NC(=O)[C@H](Cc2ccc(O)cc2)NC(=O)[C@H](Cc2c[nH]c3ccccc23)NC1=O)[C@@H](C)O [MP-185] (Ac-[Lys(N3)][βAla]LTF[R8]WYWAQ[Cba][S5]SAA-NH2; staple 6-13) |  |  |  |  |  |  | 0.137 µM |  |  |  |  | > 50 µM |  |  | Kd (human Mdm2 1–125; read-out: FP binding assay KD): 0.0985 µM; EC50 [2, 11]: 0.214 µM; p53 reporter assay % Effect ([2]; 10% FBS 4Hr): 14.92%; EC50 [2, 12]: 1.86 µM; EC50 (Ca Ski cell line; 72 h): > 49.8 µM; EC50 ([3]; 72 h): 1.97 µM |
